Assay results as given in patent US8614327B2 (Vertex Pharmaceuticals Incorporated, priority 2004, dated 2013).

Target: T1, ΔF508-CFTR (Homo sapiens, UniProt P13569, DEL508-508)
T1 construct: expressed in transfected cells
Assay: Membrane potential optical (FRET/VIPR) assay, identification of potentiator compounds
Assay type: cell-based
Conditions: Table 3, assay not given; for % Activity: relative efficacy
Procedure, shortened: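 Double-addition potentiator screen: compound delivered in gluconate-substituted Cl^--free medium, membrane potential followed via CC2-DMPE/DiSBAC2(3) FRET on VIPR. Cells were ΔF508-CFTR-expressing NIH3T3 mouse fibroblasts, held 2 h at 37° C. then 24 h at 27° C. before assay.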

T1 sequence (P13569 with tags, fused parts or gaps DEL508-508): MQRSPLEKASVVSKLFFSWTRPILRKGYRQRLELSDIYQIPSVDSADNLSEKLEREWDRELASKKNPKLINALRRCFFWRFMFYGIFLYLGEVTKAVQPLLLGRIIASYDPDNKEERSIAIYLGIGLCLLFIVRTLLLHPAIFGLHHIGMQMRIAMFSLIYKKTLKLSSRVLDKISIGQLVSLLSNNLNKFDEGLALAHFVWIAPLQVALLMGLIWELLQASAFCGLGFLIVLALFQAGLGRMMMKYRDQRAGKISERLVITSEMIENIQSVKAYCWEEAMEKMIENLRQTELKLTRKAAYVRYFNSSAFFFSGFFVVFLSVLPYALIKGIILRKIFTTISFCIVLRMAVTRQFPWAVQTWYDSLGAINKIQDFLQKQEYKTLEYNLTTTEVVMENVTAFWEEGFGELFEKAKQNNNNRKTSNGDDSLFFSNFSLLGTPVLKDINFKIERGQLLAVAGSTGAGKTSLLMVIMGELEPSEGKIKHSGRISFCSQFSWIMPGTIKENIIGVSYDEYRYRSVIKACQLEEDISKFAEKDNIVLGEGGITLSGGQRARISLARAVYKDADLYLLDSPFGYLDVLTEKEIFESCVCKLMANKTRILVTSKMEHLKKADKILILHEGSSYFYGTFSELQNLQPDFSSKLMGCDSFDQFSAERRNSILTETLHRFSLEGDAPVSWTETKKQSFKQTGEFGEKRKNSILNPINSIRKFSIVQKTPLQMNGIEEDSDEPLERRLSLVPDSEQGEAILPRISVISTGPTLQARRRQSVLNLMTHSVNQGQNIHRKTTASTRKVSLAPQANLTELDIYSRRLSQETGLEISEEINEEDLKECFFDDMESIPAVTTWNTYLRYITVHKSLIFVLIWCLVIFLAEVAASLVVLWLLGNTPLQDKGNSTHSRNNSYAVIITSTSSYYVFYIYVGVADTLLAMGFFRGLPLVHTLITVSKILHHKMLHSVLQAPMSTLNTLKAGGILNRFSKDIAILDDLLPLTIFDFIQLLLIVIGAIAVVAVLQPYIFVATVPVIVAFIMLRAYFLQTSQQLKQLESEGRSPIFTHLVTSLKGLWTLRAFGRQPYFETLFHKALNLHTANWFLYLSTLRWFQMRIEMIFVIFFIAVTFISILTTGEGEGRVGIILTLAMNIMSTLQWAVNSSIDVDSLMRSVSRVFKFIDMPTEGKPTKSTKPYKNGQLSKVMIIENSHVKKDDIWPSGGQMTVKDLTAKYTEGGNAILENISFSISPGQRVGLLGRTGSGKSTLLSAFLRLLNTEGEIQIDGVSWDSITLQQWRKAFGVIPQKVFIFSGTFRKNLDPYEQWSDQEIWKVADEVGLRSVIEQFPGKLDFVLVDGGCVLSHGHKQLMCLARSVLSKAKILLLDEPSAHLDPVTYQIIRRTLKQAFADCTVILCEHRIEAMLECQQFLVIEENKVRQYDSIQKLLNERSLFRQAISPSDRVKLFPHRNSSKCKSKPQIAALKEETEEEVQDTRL

SMILES | EC50 [µM] | % Activity
CC(C)c1ccc(NC(=O)c2c[nH]c3ccc(Cl)cc3c2=O)c(C(F)(F)F)c1 [Compound 657, 6-chloro-N-[4-isopropyl-2-(trifluoromethyl)phenyl]-4-oxo-1H-quinoline-3-carboxamide] | < 10 | ++ (between 25% to 100%)
O=C(Nc1ccc(N2CCCC2)cc1C(F)(F)F)c1c[nH]c2ccccc2c1=O [Compound 658, 4-oxo-N-[4-pyrrolidin-1-yl-2-(trifluoromethyl)phenyl]-1H-quinoline-3-carboxamide] | < 10 | ++ (between 25% to 100%)
CCc1cc(C(C)(C)C)c(O)cc1NC(=O)c1c[nH]c2ccccc2c1=O [Compound 659, N-(2-ethyl-5-hydroxy-4-tert-butyl-phenyl)-4-oxo-1H-quinoline-3-carboxamide] | < 10 | ++ (between 25% to 100%)
CCOC(=O)[C@H]1CCCN(c2ccc(NC(=O)c3c[nH]c4ccccc4c3=O)c(C(F)(F)F)c2)C1 [Compound 660, (S)-ethyl 1-(4-(4-oxo-1,4-dihydroquinoline-3-carboxamido)-3-(trifluoromethyl)phenyl)piperidine-3-carboxylate] | < 10 | ++ (between 25% to 100%)
Cc1cccc2[nH]cc(C(=O)Nc3cc4[nH]ccc4cc3C(F)(F)F)c(=O)c12 [Compound 661, 5-methyl-4-oxo-N-[5-(trifluoromethyl)-1H-indol-6-yl]-1H-quinoline-3-carboxamide] | < 10 | ++ (between 25% to 100%)
CC(C)(C)c1ccc(O)cc1NC(=O)c1c[nH]c2ccccc2c1=O [Compound 662, N-(5-hydroxy-2-tert-butyl-phenyl)-4-oxo-1H-quinoline-3-carboxamide] | < 10 | +++ (>100%)
CC(C)(C)c1cc(C(C)(C)C)c(NC(=O)c2c[nH]c3c(Cl)cccc3c2=O)cc1O [Compound 663, 8-chloro-N-(5-hydroxy-2,4-ditert-butyl-phenyl)-4-oxo-1H-quinoline-3-carboxamide] | < 10 | ++ (between 25% to 100%)
CC(C)(C)c1cccc(NC(=O)c2c[nH]c3ccc(F)cc3c2=O)c1 [Compound 664, 6-fluoro-4-oxo-N-(3-tert-butylphenyl)-1H-quinoline-3-carboxamide] | < 10 | ++ (between 25% to 100%)
CC(C)(C)c1ccc(O)cc1NC(=O)c1c[nH]c2ccc(F)cc2c1=O [Compound 665, 6-fluoro-N-(5-hydroxy-2-tert-butyl-phenyl)-4-oxo-1H-quinoline-3-carboxamide] | < 10 | ++ (between 25% to 100%)
COc1cc(NC(=O)c2c[nH]c3ccc(F)cc3c2=O)cc(C(F)(F)F)c1 [Compound 666, 6-fluoro-N-[3-methoxy-5-(trifluoromethyl)phenyl]-4-oxo-1H-quinoline-3-carboxamide] | < 10 | ++ (between 25% to 100%)
Cc1cccc2[nH]cc(C(=O)Nc3ccc(N4CC(F)(F)C[C@H]4C)cc3C(F)(F)F)c(=O)c12 [Compound 667, (R)-N-(4-(4,4-difluoro-2-methylpyrrolidin-1-yl)-2-(trifluoromethyl)phenyl)-5-methyl-4-oxo-1,4-dihydroquinoline-3-carboxamide] | < 10 | ++ (between 25% to 100%)
O=C(Nc1ccc(N2CCC(CO)CC2)cc1C(F)(F)F)c1c[nH]c2ccccc2c1=O [Compound 668, N-[4-[4-(hydroxymethyl)-1-piperidyl]-2-(trifluoromethyl)phenyl]-4-oxo-1H-quinoline-3-carboxamide] | < 10 | ++ (between 25% to 100%)
C[C@H]1CCCN1c1ccc(NC(=O)c2c[nH]c3cccc(C(F)(F)F)c3c2=O)c(C(F)(F)F)c1 [Compound 669, (S)-N-(4-(2-methylpyrrolidin-1-yl)-2-(trifluoromethyl)phenyl)-4-oxo-5-(trifluoromethyl)-1,4-dihydroquinoline-3-carboxamide] | < 10 | ++ (between 25% to 100%)
O=C(Nc1ccc(N2CCC[C@@H]2CO)cc1C(F)(F)F)c1c[nH]c2ccccc2c1=O [Compound 670, (R)-N-(4-(2-(hydroxymethyl)pyrrolidin-1-yl)-2-(trifluoromethyl)phenyl)-4-oxo-1,4-dihydroquinoline-3-carboxamide] | < 10 | ++ (between 25% to 100%)
Nc1nc2ccc(NC(=O)c3c[nH]c4ccccc4c3=O)cc2s1 [Compound 671, N-(2-aminobenzothiazol-6-yl)-4-oxo-1H-quinoline-3-carboxamide] | < 10 | ++ (between 25% to 100%)
CC(C)(C)c1cc(C(C)(C)C)c(NC(=O)c2c[nH]c3cc(F)c(F)cc3c2=O)cc1O [Compound 672, 6,7-difluoro-N-(5-hydroxy-2,4-ditert-butyl-phenyl)-4-oxo-1H-quinoline-3-carboxamide] | < 10 | ++ (between 25% to 100%)
O=C(Nc1ccc(N2CCN(CCO)CC2)cc1C(F)(F)F)c1c[nH]c2ccccc2c1=O [Compound 673, N-[4-[4-(2-hydroxyethyl)piperazin-1-yl]-2-(trifluoromethyl)phenyl]-4-oxo-1H-quinoline-3-carboxamide] | < 10 | ++ (between 25% to 100%)

SMILES | EC50 [µM] | % Activity
O=C(Nc1ccc(N2CCCC2)cc1)c1c[nH]c2ccccc2c1=O [Compound 674, 4-oxo-N-(4-pyrrolidin-1-ylphenyl)-1H-quinoline-3-carboxamide] |  | ++ (between 25% to 100%)
COc1cc(N2CCCC2)ccc1NC(=O)c1c[nH]c2ccccc2c1=O [Compound 675, N-(2-methoxy-4-pyrrolidin-1-yl-phenyl)-4-oxo-1H-quinoline-3-carboxamide] | < 10 | ++ (between 25% to 100%)
Cc1ccc(C(F)(F)F)cc1NC(=O)c1c[nH]c2cccc(O)c2c1=O [Compound 676, 5-hydroxy-N-[2-methyl-5-(trifluoromethyl)phenyl]-4-oxo-1H-quinoline-3-carboxamide] | < 10 | ++ (between 25% to 100%)
CC(C)(C)c1cc(F)c(NC(=O)c2c[nH]c3cc(C#N)ccc3c2=O)cc1O [Compound 677, 7-cyano-N-(2-fluoro-5-hydroxy-4-tert-butyl-phenyl)-4-oxo-1H-quinoline-3-carboxamide] | < 10 | ++ (between 25% to 100%)
Cc1ccc(C(F)(F)F)cc1NC(=O)c1c[nH]c2ccc(F)cc2c1=O [Compound 678, 6-fluoro-N-[2-methyl-5-(trifluoromethyl)phenyl]-4-oxo-1H-quinoline-3-carboxamide] | < 10 | ++ (between 25% to 100%)
CC(C)(C)c1cc2cc[nH]c2cc1NC(=O)c1c[nH]c2ccc(O)cc2c1=O [Compound 679, 6-hydroxy-4-oxo-N-(5-tert-butyl-1H-indol-6-yl)-1H-quinoline-3-carboxamide] | < 10 | ++ (between 25% to 100%)
CCOc1ccc2[nH]cc(C(=O)Nc3cc4[nH]ccc4cc3C(C)(C)C)c(=O)c2c1 [Compound 681, 6-ethoxy-4-oxo-N-(5-tert-butyl-1H-indol-6-yl)-1H-quinoline-3-carboxamide] | < 10 | ++ (between 25% to 100%)
CCc1cccc2c(=O)c(C(=O)Nc3ccc(C(C)C)cc3C(F)(F)F)c[nH]c12 [Compound 682, 8-ethyl-N-[4-isopropyl-2-(trifluoromethyl)phenyl]-4-oxo-1H-quinoline-3-carboxamide] | < 10 | + (<25%)
Cc1cc(C(C)(C)C)c(O)cc1NC(=O)c1c[nH]c2ccc(F)cc2c1=O [Compound 683, 6-fluoro-N-(5-hydroxy-2-methyl-4-tert-butyl-phenyl)-4-oxo-1H-quinoline-3-carboxamide] | < 10 | ++ (between 25% to 100%)
C[C@@H]1CCCN1c1ccc(NC(=O)c2c[nH]c3ccc(F)cc3c2=O)c(C(F)(F)F)c1 [Compound 684, (R)-6-fluoro-N-(4-(2-methylpyrrolidin-1-yl)-2-(trifluoromethyl)phenyl)-4-oxo-1,4-dihydroquinoline-3-carboxamide] | < 10 | ++ (between 25% to 100%)
COc1ccc2[nH]cc(C(=O)Nc3ccc(N4[C@H](C)CC[C@H]4C)cc3C(F)(F)F)c(=O)c2c1 [Compound 685, N-(4-((2R,5R)-2,5-dimethylpyrrolidin-1-yl)-2-(trifluoromethyl)phenyl)-6-methoxy-4-oxo-1,4-dihydroquinoline-3-carboxamide] | < 10 | ++ (between 25% to 100%)
O=C(Nc1ccc(N2CCCCC2)cc1C(F)(F)F)c1c[nH]c2ccccc2c1=O [Compound 686, 4-oxo-N-[4-(1-piperidyl)-2-(trifluoromethyl)phenyl]-1H-quinoline-3-carboxamide] | < 10 | ++ (between 25% to 100%)
CC(C)(C)c1cc(C(C)(C)C)c(NC(=O)c2c[nH]c3c(F)cccc3c2=O)cc1O [Compound 687, 8-fluoro-N-(5-hydroxy-2,4-ditert-butyl-phenyl)-4-oxo-1H-quinoline-3-carboxamide] | < 10 | ++ (between 25% to 100%)
Cc1ccc2[nH]cc(C(=O)Nc3cc(O)c(C(C)(C)C)cc3C(C)(C)C)c(=O)c2c1 [Compound 688, N-(5-hydroxy-2,4-ditert-butyl-phenyl)-6-methyl-4-oxo-1H-quinoline-3-carboxamide] | < 10 | ++ (between 25% to 100%)
O=C(Nc1ccc(N2CCC2)cc1C(F)(F)F)c1c[nH]c2ccccc2c1=O [Compound 689, N-[4-azetidin-1-yl-2-(trifluoromethyl)phenyl]-4-oxo-1H-quinoline-3-carboxamide] | < 10 | ++ (between 25% to 100%)
COC(=O)c1c(NC(=O)c2c[nH]c3ccccc3c2=O)csc1C(C)(C)C [Compound 690, methyl 4-[(4-oxo-1H-quinolin-3-yl)carbonylamino]-2-tert-butyl-thiophene-3-carboxylate] | < 10 | ++ (between 25% to 100%)
